Measurements: patent US12576157B2, “Peptide saporin conjugate for the treatment of cancer” (SRI International, priority 2017, dated 2026)
Residues, ends and D or L forms follow the SMILES beside them.

Key:
NSCLC tumor = test: H1299.3 15-mer in vivo tumor targeting
Experimental: (§1) A modified MGS peptide (SEQ ID NO: 31) that fuses amino acids 1-5 and 11-20 of the original MGS peptide: LQWRRNFGVWARYRL (SEQ ID NO: 31) was assessed.

[1] = Solubility of H1299.3 15-mer; type: physicochemical; details: effect of acetylation
[2] = tested on: NSCLC and other tumor cells; test: Peptide binding/internalization in tumor cell lines; type: cell-based, human
Experimental: (§2) Flow Cytometry. Biotinylated peptide was conjugated to streptavidin-R-phycoerythrin (1:1) for 30 min at RT. The remaining binding sites on streptavidin were quenched with RPMI 1640 and solution diluted to 25 nM. Tumor cells were grown to 90% confluency in a 12 well plate, then incubated with 500 μl peptide-dye conjugate for 1 hour at 37 C. After 1 hour, peptide was removed and the cells were washed 3× with PBS for 5 min, 2× with acid rinse, and 1×PBS rinse. Added 300 μl trypsin until cells lifted then added 700 μl RPMI+5% FBS to inactivate the trypsin. Cells were transferred to a flow tube, and put on ice in the dark. Flow cytometry was run on BD FACSCelesta and data were analyzed on Flowing software. A region containing <5% of the cells in the negative control is established and the McGuire score is calculated for each sample by multiplying the % of positive cells by the fluorescence intensity.
(§3) For the flow cytometry experiments, cells are treated with a peptide (e.g., a MGS peptide) that has a dye on it for one hour. If the peptide enters the cell(s), the dye will also enter the cell(s) (see, FIG. 11). Next, the cells are washed and placed in a tube to run flow cytometry. The flow cytometer can measure the brightness of 10,000 or more individual cells.
Phage blocking was used as a control. HCC15.2 was internalized by a specific panel of cell lines and not others.

H1299 cells = test: Confocal microscopy, organelle co-localization; type: cell-based, human; details: over time
Experimental: Confocal Microscopy. Plasmids with organelle specific markers labeled with GFP were purchased from Addgene and electroporated into H1299 cells. After G418 selection, GFP-labeled tumor cells were plated on 8 well chamber slides on the day previous to the study. Biotinylated peptide was conjugated to streptavidin-AlexaFluor 555 (1:1) for 30 min at RT and quenched with RPMI, then added to the wells at 50 nM. After 1 hour incubation cells were washed for 5 min 3× with PBS, 2× acid rinses, and 1×PBS rinse. Cells were fixed in 2% formaldehyde for 10 min, washed with PBS, stained with DAPI in mounting media and coverslip was added. Microscopy was acquired on a Zeiss LSM 700 with a Pln Apo 63×/1.4 oil DIC III objective. Compressed images were obtained using ImageJ software maximal intensity projections.
For the microscopy experiments, cells are treated with a peptide (e.g., a MGS peptide) that has a dye on it for one hour. If the peptide enters the cell(s), the dye will also enter the cell(s) (see, FIG. 1). Next, the cells are washed and fixed to glass plate. Other parts of the cell (e.g., cell membrane, organelles or nucleus) are stained. Fluorescent microscopy is performed to assess the dyes in the cells. Confocal microscopy is used to take a series of sliced images that can be used to build a 3D picture (like an MRI).

normal HBEC's = test: Flow cytometry binding of peptide-dye conjugate, normal HBEC; type: cell-based
Experimental: as §2, §3

LC line H1299 = test: Flow cytometry binding of peptide-dye conjugate, H1299; type: cell-based, human
Experimental: as §2, §3

cancer cells [3] = test: H1299.3 15-mer cell binding and autophagosome co-localization; type: cell-based
Experimental: as §1

cancer cells [4] = test: Cancer cell killing assay; type: cell-based; details: unconjugated
Experimental: A cancer cell killing assay was performed (see, FIG. 22). Cancer cells were put into a dish. After 24 hours, cells were given different doses of peptide-saporin for 1 hour. Peptide-saporin was washed off and cells were left for 72 more hours. Assay to measure live cells performed.

CC(=O)N[C@@H](CC(C)C)C(=O)N[C@@H](CCC(N)=O)C(=O)N[C@@H](Cc1c[nH]c2ccccc12)C(=O)N[C@@H](CCCNC(=N)N)C(=O)N[C@@H](CCCNC(=N)N)C(=O)N[C@@H](CC(N)=O)C(=O)N[C@@H](Cc1ccccc1)C(=O)NCC(=O)N[C@H](C(=O)N[C@@H](Cc1c[nH]c2ccccc12)C(=O)N[C@@H](C)C(=O)N[C@@H](CCCNC(=N)N)C(=O)N[C@@H](Cc1ccc(O)cc1)C(=O)N[C@@H](CCCNC(=N)N)C(=O)N[C@@H](CC(C)C)C(=O)O)C(C)C [1299.3 Ac-15mer] (Ac-LQWRRNFGVWARYRL-OH; N-terminus and C-terminus assumed)
degradation in vivo (NSCLC tumor; effect of acetylation): protects degradation in vivo | solubility [1]: improves solubility

FHAVPQSFYT [SEQ ID NO: 3]
effect of acetylation on binding of the truncated peptide ([2]; N-terminal acetylation): improves binding

FHAVPQSFYTAP [HCC15.2]
lysosome localization (H1299 cells): accumulates in the lysosome over time | binding to cell line panel [2]: binds to a specific subset of NSCLC and other tumor cells | internalization ([2]; at 4° C.): does not internalize | effect of tetramerization on receptor mediated internalization ([2]; tetramer compared to monomer): does not significantly improve | internalization ([2]; treating with trypsin 2 min before adding peptide): no internalization | binding by flow cytometry (normal HBEC's): does not bind | binding by flow cytometry (LC line H1299): binds

LQWRRNFGVWARYRL [SEQ ID NO: 31]
tumor targeting in vivo (NSCLC tumor; NSCLC tumor in an animal): hones to a NSCLC tumor | reduction in heart, lung and kidney tumors (NSCLC tumor; in vivo): > 2 fold | cancer specificity (cancer cells [3]; cancer versus normal cell binding): maintains its cancer specificity | trafficking to the autophagosome (cancer cells [3]; versus original peptide): increases its ability to traffic to the autophagosome

saporin: ribosome inactivating protein (RIP, 34 KD) with no cell entry domain; plant toxin
cell entry (cancer cells [4]): did not enter the cell by itself
